In patent publication US8586603B2, “Aminotetraline derivatives” (priority 2009, dated 2013):
Where “and” joins values, the source holds several entries; their conditions need not be identical. Equal entries are not always repeated.

Tests used:
[1] = molecular target: porcine cortical pα2 adrenergic receptor; assay: Receptor binding assay, [3H]RX821002 competition, porcine cortical membranes; conditions: means of 2-8 individual experiments each done as triplicate
[2] = Pig skin permeation from saturated solution; type: in vitro ADME; conditions: pig leg skin 300-500 μm, phosphate buffer pH 6.2, 32° C., 48 hours, mean of cells 1-3
Method: The in vitro permeation of compound 1 through pig skin from saturated solution (f1) and from a patch (f2) was investigated.
(§1) For the permeation experiments horizontal cells with an acceptor and donor volume of approx. 23 mL of phosphate buffer pH 6.2 were used. The donor cells contained saturated solutions of compound 1 (2 mg/mL) in phosphate buffer pH 6.2. The experiments were performed at a temperature of 32° C. and the acceptor and donor media were slowly stirred. For the study pig leg skin with thickness of 300-500 μm were used. The experiments were performed in triplicate (n=3) over a period of 48 hours. During this time period six samples at different time points (after 2, 4, 6, 8, 24 and 48 hours) were taken. After each individual incubation period the concentration of the test compound in the acceptor medium was analysed by HPLC at 275 nm, 20° C., flow rate 2.0 mL/min in acetonitrile/water/TFA.
Evaluation: The concentration of the test compound in the acceptor medium was calculated by using an external standard solution with known concentration. Then the concentration of test compound was correlated with the incubation time by linear regression. The flux rate [μg/cm^2/h] is equivalent to the slope of the linear equation.

[3] = test system: formalin-induced hind paw licking in CD-1 mice; assay: Animal pain test (formalin assay); type: in vivo; conditions: for % Inhibition of hind paw licking time: vs vehicle
Method: The formalin test is being widely accepted as a valid basic model of persistent clinical pain, and may indicate a compound's efficacy in neuropathic and/or inflammatory pain conditions.
Compound 1 and a comparator (gabapentin 100 mg/kg) were administered to groups of 5 or 10 CD-1 (Crl.) derived male mice weighing 24±2 g. Test substances and vehicle (0.2% HPMC/0.9% NaCl) were each administered by intraperitoneal injection (gabapentin) or oral gavage (compound 1) 15 or 30 minutes before subplantar injection of formalin (0.02 ml, 2% solution). Reduction of the formalin-induced hind paw licking time recorded at 5-minute interval during the following 0- to 35-minute after formalin injection by 50 percent or more (≧50%) indicated significant analgesic activity. Also, statistical analysis was performed by using one-way ANOVA followed by Dunnett's test to compare the test compound-treated and vehicle control groups. Significance is considered at P<0.05 level. Acute toxic symptoms and autonomic effects were observed after the administration of test compounds.

human 5-HT1a receptor = molecular target: T1, human 5-HT1a receptor (Homo sapiens, UniProt P08908); assay: [35S]GTPγS functional assay; type: biochemical
T1 construct: expressed in transfected cells
T1 sequence (P08908 1-422): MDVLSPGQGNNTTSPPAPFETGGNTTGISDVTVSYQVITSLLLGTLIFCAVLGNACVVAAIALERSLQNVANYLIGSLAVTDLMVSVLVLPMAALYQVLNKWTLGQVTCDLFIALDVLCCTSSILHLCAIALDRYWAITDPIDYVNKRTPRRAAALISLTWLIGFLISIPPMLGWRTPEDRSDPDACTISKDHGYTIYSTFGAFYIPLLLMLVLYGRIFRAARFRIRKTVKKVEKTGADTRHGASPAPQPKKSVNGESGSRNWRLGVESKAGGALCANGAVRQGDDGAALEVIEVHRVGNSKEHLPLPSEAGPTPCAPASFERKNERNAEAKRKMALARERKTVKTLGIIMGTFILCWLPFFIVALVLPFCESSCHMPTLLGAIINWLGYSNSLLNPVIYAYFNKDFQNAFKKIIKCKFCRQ
Method: Specific binding of [^35S]GTPγS is stimulated by activation of the stably expressed human 5-HT1a receptor in a dose-dependent way by agonists for this GPCR and is determined by measuring the radioactive label of the membrane. Non-linear regression analysis of the resulting dose-response curves yields the EC50 value in [nM] representing the half maximal concentration which is necessary to activate the receptor completely.

[4] = molecular target: T2, human dopamine receptor subtype hD3 (Homo sapiens, UniProt P35462); assay: Receptor binding assay, [3H]spiperone competition, CHO cell membranes
T2 construct: expressed in transfected cells; host or cells: CHO
Method: (§2) Receptor binding data were determined when performing competition binding assays with membrane preparations of cloned cells (stably transfected Chinese Hamster Ovary cells (CHO)) expressing the human receptors and the following radioligands: [^3H]spiperone at the human dopamine receptor subtypes hD2long, hD2short, D3, and hD4.4.
(§3) Selectivity ratios were calculated by division of the Ki values of the various compounds at the respective receptors through the Ki values at the 5HT1a receptor.

[5] = molecular target: T3, human dopamine receptor subtype hD2long (Homo sapiens, UniProt P14416); assay: as above
T3 construct: expressed in transfected cells; host or cells: CHO
Method: as §2, §3

[6] = molecular target: T4, human dopamine receptor subtype hD2short (Homo sapiens, UniProt P14416); assay: as above
T4 construct: expressed in transfected cells; host or cells: CHO
Method: as §2, §3

[7] = Saturated solution in phosphate buffer pH 6.2; type: physicochemical
Method: as §1

[8] = 5 mg/kg oral, interval 0-5 minutes
[9] = 5 mg/kg oral, interval 5-10 minutes
[10] = 5 mg/kg oral, interval 10-15 minutes
[11] = 5 mg/kg oral, interval 15-20 minutes
[12] = 5 mg/kg oral, interval 20-25 minutes
[13] = 5 mg/kg oral, interval 25-30 minutes
[14] = 5 mg/kg oral, interval 30-35 minutes
[15] = 10 mg/kg oral, interval 0-5 minutes
[16] = 10 mg/kg oral, interval 5-10 minutes
[17] = 10 mg/kg oral, interval 20-25 minutes
[18] = 10 mg/kg oral, interval 25-30 minutes
[19] = 10 mg/kg oral, interval 30-35 minutes
[20] = means of 2-8 individual experiments each done as triplicate

T4 sequence (P14416 1-414 isoform P14416-2): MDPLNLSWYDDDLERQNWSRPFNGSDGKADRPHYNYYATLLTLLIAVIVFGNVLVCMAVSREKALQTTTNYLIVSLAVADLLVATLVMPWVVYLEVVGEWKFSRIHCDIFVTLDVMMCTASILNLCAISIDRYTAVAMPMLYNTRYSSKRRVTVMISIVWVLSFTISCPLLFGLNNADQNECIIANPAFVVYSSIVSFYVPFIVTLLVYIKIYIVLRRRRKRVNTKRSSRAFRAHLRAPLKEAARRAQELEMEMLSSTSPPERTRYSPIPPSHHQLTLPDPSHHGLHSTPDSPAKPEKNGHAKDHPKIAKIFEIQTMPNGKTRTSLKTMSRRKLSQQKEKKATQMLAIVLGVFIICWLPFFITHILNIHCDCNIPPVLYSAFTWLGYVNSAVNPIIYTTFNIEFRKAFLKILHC
T3 sequence (P14416 whole entry): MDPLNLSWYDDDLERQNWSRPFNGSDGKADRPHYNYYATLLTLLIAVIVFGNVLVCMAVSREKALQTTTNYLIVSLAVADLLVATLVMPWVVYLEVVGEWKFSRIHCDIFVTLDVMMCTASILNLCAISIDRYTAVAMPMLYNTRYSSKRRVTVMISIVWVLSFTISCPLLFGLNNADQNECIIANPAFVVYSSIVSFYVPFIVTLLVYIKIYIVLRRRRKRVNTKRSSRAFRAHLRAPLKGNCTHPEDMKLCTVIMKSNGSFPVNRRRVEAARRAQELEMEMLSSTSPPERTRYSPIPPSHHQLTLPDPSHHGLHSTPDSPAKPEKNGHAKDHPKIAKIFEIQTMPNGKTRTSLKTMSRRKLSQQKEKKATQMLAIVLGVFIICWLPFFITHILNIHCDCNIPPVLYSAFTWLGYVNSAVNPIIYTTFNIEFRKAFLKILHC
T2 sequence (P35462 whole entry): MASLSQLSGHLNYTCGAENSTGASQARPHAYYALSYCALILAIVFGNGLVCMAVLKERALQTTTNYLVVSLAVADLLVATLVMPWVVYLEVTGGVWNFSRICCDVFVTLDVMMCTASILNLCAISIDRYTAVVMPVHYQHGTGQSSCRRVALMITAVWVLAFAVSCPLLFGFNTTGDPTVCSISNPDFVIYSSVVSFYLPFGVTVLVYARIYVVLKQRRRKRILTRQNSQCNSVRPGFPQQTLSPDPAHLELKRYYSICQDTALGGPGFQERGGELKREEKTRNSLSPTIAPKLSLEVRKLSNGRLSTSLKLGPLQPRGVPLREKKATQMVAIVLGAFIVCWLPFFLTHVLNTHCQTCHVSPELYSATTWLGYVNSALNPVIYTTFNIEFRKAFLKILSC

## CCCN(CCc1cccs1)C1CCc2cccc(O)c2C1 (stereo not drawn) [Compound 1, N-(8-Hydroxytetralin-2-yl)-N-propyl-N-[2-(2-thienyl)ethyl]amine]
[1]
  Ki: 68 nM
[2]
  average flux rate from saturated solution: 4.0 μg/cm^2/h
[3]; 1 mg/kg oral administration
  analgesic effect: no analgesic effect
[3]; 3 mg/kg oral administration
  analgesic effect: some effect
[3]; [8]
  Hind Paw Licking Times: 63.4 ± 7.2 s
  % Inhibition of hind paw licking time: (18%)
[3]; [9]
  Hind Paw Licking Times: 10.2 ± 3.9 s
  % Inhibition of hind paw licking time: (0%)
[3]; [10]
  Hind Paw Licking Times: 25.1 ± 11.6 s
  % Inhibition of hind paw licking time: (54%)
[3]; [11]
  Hind Paw Licking Times: 56.7 ± 18 s
  % Inhibition of hind paw licking time: (44%)
[3]; [12]
  Hind Paw Licking Times: 54.7 ± 9.4 s
  % Inhibition of hind paw licking time: (12%)
[3]; [13]
  Hind Paw Licking Times: 54.7 ± 15.1 s
  % Inhibition of hind paw licking time: (0%)
[3]; [14]
  Hind Paw Licking Times: 24.7 ± 9.8 s
  % Inhibition of hind paw licking time: (0%)
[3]; 10 mg/kg oral administration, 10-20 minutes period
  analgesic effect: significant analgesic effect
[3]; [15]
  Hind Paw Licking Times: 64.3 ± 7.3 s
  % Inhibition of hind paw licking time: (16%)
[3]; [16]
  Hind Paw Licking Times: 0 ± 0 s
  % Inhibition of hind paw licking time: (100%)
[3]; 10 mg/kg oral, interval 10-15 minutes
  % Inhibition of hind paw licking time: (96%)
[3]; 10 mg/kg oral, interval 15-20 minutes
  % Inhibition of hind paw licking time: (69%)
[3]; [17]
  Hind Paw Licking Times: 37.5 ± 13.6 s
  % Inhibition of hind paw licking time: (40%)
[3]; [18]
  Hind Paw Licking Times: 29.9 ± 12.7 s
  % Inhibition of hind paw licking time: (0%)
[3]; [19]
  Hind Paw Licking Times: 12.8 ± 8.8 s
  % Inhibition of hind paw licking time: (10%)
[3]; oral
  activity in an oral animal model of pain: active
Human 5-HT1a receptor; in words
  agonist activity at the human 5-HT1a receptor: full agonist activity
Human 5-HT1a receptor; mean values of 2-8 individual experiments
  EC50: 0.65 to 1.9 nM and 1.9 nM
Human 5-HT1a receptor; read-out: intrinsic activity [% rel. to serotonin]
  Emax: 103%
[4]; [20]
  Ki: 190 nM
[4]; vs p5-HT1a
  selectivity ratio hD3: 260
[5]; [20]
  Ki: 260 nM
[5]; vs p5-HT1a
  selectivity ratio hD2long: 360
[6]; [20]
  Ki: 260 nM
[6]; vs p5-HT1a
  selectivity ratio hD2short: 360
[7]
  concentration of saturated solution: 2000 µg/mL
